Assays:
[1] = Comparative toxicity study (LD0, LD50) and therapeutic index; settings: mouse, in vivo
Source text: (§1) In the study of the cytostatic action, 6-mercaptopurine was taken as the comparative anti-neoplastic drug.

mouse = experiment: as above; settings: for LD0 (zero lethal dose or maximal permissible dose): LD0 expressed in mg/mouse; for LD50: LD50 expressed in mg/mouse
Source text: as §1

He-La cells and KB cells = experiment: Cytostatic action on He-La cells and on KB cells, 6-mercaptopurine as comparative drug (Table 1); format: cell-based, human; parameters: unit not given beside the values; settings: calculated using 6-mercaptopurine as the comparative drug (6-mercaptopurine = 1)
Source text: as §1

HeLa cells = experiment: Cytotoxic activity on HeLa cells, comparison with corresponding 4-nitronaphthalimides; format: cell-based, human; settings: relative; ID50 of 6-mercaptopurine is assigned the value "1"; 37° C., 72 hours; Lowry protein
Method: A series of tests has been carried out comparing the compounds of our invention with the corresponding 4-nitronaphthalimides, with respect to their cytotoxic activity on HeLa cells. The cytotoxic activity test was carried out in accordance with the procedure set forth in "R. I. Heral. Cancer Chemotherapy Report part III, Vol. III, No. 2".
HeLa cells are human cancer cells commonly used for investigating the cytotoxic activity of compounds. These HeLa cells are cultured by the single layer tissue culture technique on glass slides in the laboratories of the Spanish company, Laboratories Made, S.A., of Madrid, Spain, the assignee of this application.
In the tests, there was used an initial culture containing approximately 125000 HeLa cells per milliliter. The initial culture was dispersed with trypsin and was stirred to maintain the cells in suspension therein. Portions of equal volume of the suspension were placed in separate test tubes and to the test tubes were added the various compounds set forth below in various concentrations. There was employed as a standard for comparison, the compound 6-mercaptopurine, a known anti-neoplastic agent whose cytotoxic activity on HeLa cells is well known. As a control, there were also employed test tubes containing the suspension and to which no compound was added.
The contents of the test tubes were cultured at 37° C. for 72 hours. Then the contents of the various test tubes were examined by optical microscope to determine the approximate proportion of cells whose cellular growth was inhibited. Then, the protein content of each tube was determined by the Lowry method, as modified by Oyama and Eagle (Proc. Soc. Exptl. Biol. Med. 91, 305 (1956), and these values are compared with the corresponding values obtained in the control test tubes wherein no compound was added. Comparison of these measured protein values provides a further determination of the inhibition of cell growth caused by the test compounds. With the data obtained from the test tubes containing the same compound in various concentrations, a graph was prepared of concentration of compound versus inhibition of growth of HeLa cells. From this, there can be obtained the so-called ID50 value, that is, the dose of the compound that inhibits HeLa cellular growth by 50%. This is then compared with the results for the comparison compound 6-mercaptopurine. For purposes of comparison, the ID50 value of 6-mercaptopurine is assigned the value "1".

Swiss I.C.R. albino mice = experiment: Raticide/muricide action, drugs mixed with mice food for 7 days, Warfarin as comparative substance; format: in vivo, mouse (Swiss I.C.R. albino); settings: for Dose to be taken in seven days: mixed with usual mice food at 1%, 0.5% and 0.1%, 7 days, oral; for Raticide and muricide action compared with Warfarin / Toxicity compared with Warfarin: in words
Method: The four drugs were given to Swiss I.C.R. albino mice during 7 days. The administration was done by mixing the drugs with the usual mice food at concentrations of 1%, 0.5% and 0.1%. Two cribs were put in each cage: one with the usual mice food and the other containing food to which our drugs were added at the above mentioned concentrations. The food of both cribs was weighed daily in order to see if the animals could distinguish it. Warfarin (3-(α-acetonylbenzyl)-4-hydroxycoumarin) was used as the comparative substance.

Compound | selectivity ratio [1] | LD0 (zero lethal dose or maximal permissible dose) (mouse) [mg/mouse] | LD50 (mouse) [mg/mouse] | ID50 (50% inhibitory dose) (He-La cells and KB cells) | ID50 (dose that inhibits HeLa cellular growth by 50%) (HeLa cells) | Dose to be taken in seven days (Swiss I.C.R. albino mice) [mg/kg] | Raticide and muricide action compared with Warfarin (Swiss I.C.R. albino mice) | Toxicity compared with Warfarin (Swiss I.C.R. albino mice)
Sc1ncnc2nc[nH]c12 [6-mercaptopurine, reference compound] | 5 | 1 | 5 | – | – | – | – | –
O=C1c2cccc3cc([N+](=O)[O-])cc(c23)C(=O)N1CCN1CCCCC1 [Compound 1, N-[2-(N-piperidino)ethyl]-3-nitronaphthalimide] | – | 0.5 | 2 | 2 | 2 | 80 | – | –
CCN(CC)CCN1C(=O)c2cccc3cc([N+](=O)[O-])cc(c23)C1=O [Compound 2, N-(2-diethylaminoethyl)-3-nitronaphthalimide] | – | 0.15 | 2 | 3 | 3 | 13 | great superiority over Warfarin as raticide and muricide agents | more toxic
CN(C)CCN1C(=O)c2cccc3cc([N+](=O)[O-])cc(c23)C1=O [Compound 3, N-(2-dimethylaminoethyl)-3-nitronaphthalimide] | 2 | 0.2 | 0.30 | 0.15 | 0.15 | 6.6 | great superiority over Warfarin as raticide and muricide agents | more toxic
O=C1c2cccc3cc([N+](=O)[O-])cc(c23)C(=O)N1CCN1CCCC1 [Compound 4, N-[2-(N-pyrrolidino)ethyl]-3-nitronaphthalimide] | 1.26 | 0.2 | 0.38 | 0.3 | 0.30 | 6.6 | great superiority over Warfarin as raticide and muricide agents | more toxic
O=C1c2cccc3c([N+](=O)[O-])ccc(c23)C(=O)N1CCN1CCCCC1 [N-[2-(N-piperidino)ethyl]-4-nitronaphthalimide, reference compound] | – | – | – | – | 5 | – | – | –
O=C1c2cccc3c([N+](=O)[O-])ccc(c23)C(=O)N1CCN1CCCC1 [N-[2-(N-pyrrolidino)ethyl]-4-nitronaphthalimide, reference compound] | – | – | – | – | 4 | – | – | –
CCN(CC)CCN1C(=O)c2cccc3c([N+](=O)[O-])ccc(c23)C1=O [N-[2-diethylaminoethyl]-4-nitronaphthalimide, reference compound] | – | – | – | – | 5.5 | – | – | –
CN(C)CCN1C(=O)c2cccc3c([N+](=O)[O-])ccc(c23)C1=O [N-[2-dimethylaminoethyl]-4-nitronaphthalimide, reference compound] | – | – | – | – | 3 | – | – | –
CC(=O)CC(c1ccccc1)c1c(O)c2ccccc2oc1=O (stereo not drawn) [Warfarin, 3-(α-acetonylbenzyl)-4-hydroxycoumarin, reference compound] | – | – | – | – | – | 35 | – | –
